Measurements as given in US20240025891A1 (Celgene Corporation, priority 2020, published 2024).
pIC50: −log10 of the molar value.

System: Onchocerca gutturosa adult male worms
Assay: Onchocerciasis in vitro screening model Onchocerca gutturosa (worm motility score and MTT/formazan colorimetry)
Details: Onchocerca gutturosa, read-out: O. gutt Act class
Procedure: Onchocerciasis: In Vitro Screening Model Onchocerca gutturosa
Parasite and cell cultures. Onchocerca gutturosa adult male worms were obtained by dissection from the nuchal ligament connective tissues of naturally infected cattle, from Gambia, W Africa.
The worms were maintained for at least 24 h in culture before use in Eagles Minimum Essential Medium with Earl's Salts (Gibco, UK)+10% heat inactivated new born calf serum (Gibco, UK)+antibiotic cover of 200 units/ml penicillin, 200 μg/ml streptomycin and 0.5 μg/ml amphotericin B (Sigma, UK). Only normally active specimens were used in the test. All cultures and assays were conducted at 37° C. under an atmosphere of 5% CO2 in air.
Drug sensitivity assays. Compound stock solutions were prepared in 100% DMSO unless otherwise indicated and diluted into the medium. Any unused compound stocks were stored at −20° C. Assays were performed in sterile 24-well (2 ml) plates (Falcon, UK).
Worms were then transferred individually to each well of the plate using fine forceps. Worm viability was assessed using 2 parameters: • The measurement of mean worm motility scores on a scale of 0 (immotile) to 10 (maximum) every 24 h, terminating at 120 h, using an Olympus inverted microscope. • The biochemical evaluation of worm viability using MTT/formazan colorimetry. The MTT assay was carried out after the last motility reading (120 h). Single intact worms were placed in each well of a 48-well plate (Falcon, UK) containing 0.5 ml of a solution consisting of 0.5 mg/ml MTT (Sigma UK) in phosphate buffered saline, and then incubated for 30 min at 37° C. The worms were removed, blotted carefully, and individually transferred to separate wells of a 96-well microtiter plate, each containing 200 μl of DMSO to solubilize the formazan. After 1 h the plate was gently agitated to disperse the color evenly and the absorbance value (optical density) of the resulting formazan solution was determined at 490 nm using a multi-well scanning spectrophotometer (Elisa-reader, Dynatech, UK). Inhibition of formazan formation was correlated with worm damage or death.
Primary screen. New compounds were usually tested at 1.25×10^−5 M. Also expressed in μg/ml.
Secondary screen. […] Serial 1 in 4 drug dilutions was carried out to find activity endpoint and EC50 values for motility reduction and inhibition of formazan formation were produced. EC50 values were determined using Excel or Origin V7 scientific graphing and data analysis software.

Structure (SMILES)	pIC50
Cc1ccnc(Nc2nc(-c3ccccn3)c(CN3CCCC3)s2)c1 [Example 185, N-(4-methylpyridin-2-yl)-4-(pyridin-2-yl)-5-(pyrrolidin-1-ylmethyl) thiazol-2-amine]	6.30 to 6.70
Cc1sc(Nc2cc(C(F)(F)F)c(C(C)C)cn2)nc1-c1ccccn1 [Example 186, N-(5-isopropyl-4-(trifluoromethyl)pyridin-2-yl)-5-methyl-4-(pyridin-2-yl)thiazol-2-amine]	> 6.70
C[C@@H]1CN(C(=O)c2sc(Nc3cc(C(F)(F)F)ccn3)nc2-c2ccccn2)C[C@H](C)O1 [Example 187, ((2S,6R)-2,6-dimethyl-morpholino) (4-(pyridin-2-yl)-2-(4-(trifluoromethyl)pyridin-2-ylamino)thiazol-5-yl)methanone]	> 6.70
C[C@@H]1CN(Cc2sc(Nc3cc(C(=O)NCC(F)(F)F)ccn3)nc2-c2ccccn2)C[C@H](C)O1 [Example 188, 2-(5-(((2S,6R)-2,6-dimethyl-morpholino)methyl)-4-(pyridin-2-yl)thiazol-2-ylamino)-N-(2,2,2-trifluoroethyl) isonicotinamide]	> 6.70
N#Cc1sc(Nc2cc(C(F)(F)F)ccn2)nc1-c1ccccn1 [Example 189, 4-(pyridin-2-yl)-2-(4-(trifluoromethyl)pyridin-2-ylamino) thiazole-5-carbonitrile]	5.30 to 6.30
O=C(c1sc(Nc2cc(C(F)(F)F)ccn2)nc1-c1ccccn1)N1CCC2(CC1)OCCO2 [Example 190, (4-(pyridin-2-yl)-2-(4-(trifluoromethyl)pyridin-2-ylamino)thiazol-5-yl)(1,4-dioxa-8-azaspiro[4.5]decan-8-yl)methanone]	5.30 to 6.30
CN1CCN(C(=O)c2sc(Nc3cc(C(F)(F)F)ccn3)nc2-c2ccccn2)CC1 [Example 191, (4-methylpiperazin-1-yl)(4-(pyridin-2-yl)-2-(4-(trifluoromethyl)pyridin-2-ylamino)thiazol-5-yl)methanone]	5.30 to 6.30
O=C(c1sc(Nc2cc(C(F)(F)F)ccn2)nc1-c1ccccn1)N1CCN2CCCC2C1 (stereo not shown) [Example 192, (hexahydro-pyrrolo [1,2-a]pyrazin-2(1H)-yl)(4-(pyridin-2-yl)-2-(4-(trifluoromethyl)pyridin-2-ylamino)thiazol-5-yl)methanone]	6.30 to 6.70
OCc1sc(Nc2cc(F)ccn2)nc1-c1ccccn1 [Example 193, (2-(4-fluoropyridin-2-ylamino)-4-(pyridin-2-yl)thiazol-5-yl)methanol]	> 6.70
CCc1sc(Nc2cccc(C(F)(F)F)n2)nc1-c1ccccn1 [Example 194, 5-ethyl-4-(pyridin-2-yl)-N-(6-(trifluoromethyl)pyridin-2-yl)thiazol-2-amine]	5.30 to 6.30
CN(C)Cc1sc(Nc2cc(C(F)(F)F)ccn2)nc1-c1ccccn1 [Example 195, 5-((dimethylamino)methyl)-4-(pyridin-2-yl) N-(4-(trifluoromethyl)pyridin-2-yl)thiazol-2-amine]	6.30 to 6.70
C[C@@H]1CN(Cc2sc(Nc3cc(C(F)(F)F)ccn3)nc2-c2ccccn2)C[C@H](C)N1 [Example 196, 5-(((3R,5S)-3,5-dimethyl-piperazin-1-yl)methyl)-4-(pyridin-2-yl)-N-(4-(trifluoromethyl)pyridin-2-yl)thiazol-2-amine]	> 6.70
FC(F)(F)c1ccnc(Nc2nc(-c3ccccn3)c(CN3CCCC3)s2)c1 [Example 197, 4-(pyridin-2-yl)-5-(pyrrolidin-1-ylmethyl)-N-(4-(trifluoromethyl)pyridin-2-yl)thiazol-2-amine]	5.30 to 6.30
Cc1sc(Nc2cc(C(=O)NCC(F)(F)F)ccn2)nc1-c1ccccn1 [Example 198, 2-(5-methyl-4-(pyridin-2-yl)thiazol-2-ylamino)-N-(2,2,2-trifluoroethyl) isonicotinamide]	> 6.70
O=C(c1sc(Nc2cc(C(F)(F)F)ccn2)nc1-c1ccccn1)N1CCOCC1 [Example 199, morpholino(4-(pyridin-2-yl)-2-(4-(trifluoromethyl)pyridin-2-ylamino)thiazol-5-yl)methanone]	5.30 to 6.30
O=C(c1sc(Nc2cc(C(F)(F)F)ccn2)nc1-c1ccccn1)N1CCCCC1 [Example 200, piperidin-1-yl(4-(pyridin-2-yl)-2-(4-(trifluoromethyl)pyridin-2-ylamino)thiazol-5-yl)methanone]	5.30 to 6.30
C[C@@H]1CN(Cc2sc(Nc3cc(C(F)(F)F)ccn3)nc2-c2ccccn2)C[C@H](C)O1 [Example 201, 5-(((2R,6S)-2,6-dimethyl-morpholino)methyl)-4-(pyridin-2-yl)-N-(4-(trifluoromethyl)pyridin-2-yl)thiazol-2-amine]	> 6.70
O=C(NCC1CCOCC1)c1sc(Nc2cc(C(F)(F)F)ccn2)nc1-c1ccccn1 [Example 203, 4-(pyridin-2-yl)-N-((tetrahydro-2H-pyran-4-yl)methyl)-2-(4-(trifluoromethyl)pyridin-2-ylamino) thiazole-5-carboxamide]	5.30 to 6.30
O=C(NC1CCCC1)c1sc(Nc2cc(C(F)(F)F)ccn2)nc1-c1ccccn1 [Example 204, N-cyclopentyl-4-(pyridin-2-yl)-2-(4-(trifluoromethyl)pyridin-2-ylamino) thiazole-5-carboxamide]	5.30 to 6.30
Cc1sc(Nc2cc(OC3CCOCC3)ccn2)nc1-c1ccccn1 [Example 205, 5-methyl-4-(pyridin-2-yl)-N-(4-(tetrahydro-2H-pyran-4-yloxy)pyridin-2-yl)thiazol-2-amine]	> 6.70
O=C(O)c1sc(Nc2cc(C(F)(F)F)ccn2)nc1-c1ccccn1 [Example 206, 4-(pyridin-2-yl)-2-(4-(trifluoromethyl)pyridin-2-ylamino) thiazole-5-carboxylic acid]	> 6.70
O=C(c1sc(Nc2cc(C(F)(F)F)ccn2)nc1-c1ccccn1)N1CCCC1 [Example 207, (4-(pyridin-2-yl)-2-(4-(trifluoromethyl)pyridin-2-ylamino)thiazol-5-yl)(pyrrolidin-1-yl)methanone]	> 6.70

Structure (SMILES)	pIC50
CN(C)CCNC(=O)c1sc(Nc2cc(C(F)(F)F)ccn2)nc1-c1ccccn1 [Example 208, N-(2-(dimethylamino)ethyl)-4-(pyridin-2-yl)-2-(4-(trifluoro-methyl)pyridin-2-ylamino) thiazole-5-carboxamide]	> 6.70
CN(C)C(=O)c1sc(Nc2cc(C(F)(F)F)ccn2)nc1-c1ccccn1 [Example 209, N,N-dimethyl-4-(pyridin-2-yl)-2-(4-(trifluoromethyl)pyridin-2-ylamino) thiazole-5-carboxamide]	> 6.70
FC(F)(F)c1ccnc(Nc2nc(-c3ccccn3)c(CN3CCOCC3)s2)c1 [Example 210, 5-(morpholino-methyl)-4-(pyridin-2-yl)-N-(4-(trifluoromethyl)pyridin-2-yl) thiazol-2-amine]	> 6.70
O=C(NCC(F)(F)F)c1ccnc(Nc2nc(-c3ccccn3)c(CO)s2)c1 [Example 211, 2-(5-(hydroxy-methyl)-4-(pyridin-2-yl)thiazol-2-ylamino)-N-(2,2,2-trifluoroethyl) isonicotinamide]	6.30 to 6.70
CC(=O)N(C)c1cc(C(F)(F)F)cnc1Nc1nc(-c2ccccn2)cs1 [Example 212, N-methyl-N-(2-(4-(pyridin-2-yl)thiazol-2-ylamino)-5-(trifluoro-methyl)pyridin-3-yl) acetamide]	> 6.70
c1ccc(-c2csc(Nc3ncccn3)n2)nc1 [Example 213, 4-(pyridin-2-yl)-N-(pyrimidin-2-yl)thiazol-2-amine]	5.30 to 6.30
c1ccc(Nc2nc(-c3ccccn3)cs2)nc1 [Example 214, N,4-di(pyridin-2-yl)thiazol-2-amine]	6.30 to 6.70
Cc1cccnc1Nc1nc(-c2ccccn2)cs1 [Example 215, N-(3-methylpyridin-2-yl)-4-(pyridin-2-yl)thiazol-2-amine]	> 6.70
FC(F)(F)c1ccc(Nc2nc(-c3ccccn3)cs2)nc1 [Example 217, 4-(pyridin-2-yl)-N-(5-(trifluoromethyl)pyridin-2-yl)thiazol-2-amine]	5.30 to 6.30
COc1ccc(Nc2nc(-c3ccccn3)cs2)nc1 [Example 218, N-(5-methoxypyridin-2-yl)-4-(pyridin-2-yl)thiazol-2-amine]	6.30 to 6.70
CC(C)c1ccc(Nc2nc(-c3ccccn3)cs2)nc1 [Example 219, N-(5-isopropylpyridin-2-yl)-4-(pyridin-2-yl)thiazol-2-amine]	> 6.70
Cc1ccnc(Nc2nc(-c3cc(C)ccn3)cs2)c1 [Example 220, N,4-bis(4-methylpyridin-2-yl)thiazol-2-amine]	> 6.70
c1ccc(-c2ccc(Nc3nc(-c4ccccn4)cs3)nc2)cc1 [Example 221, N-(5-phenylpyridin-2-yl)-4-(pyridin-2-yl)thiazol-2-amine]	> 6.70
Cc1ccnc(-c2csc(Nc3ncccc3C)n2)c1 [Example 222, N-(3-methylpyridin-2-yl)-4-(4-methylpyridin-2-yl)thiazol-2-amine]	5.30 to 6.30
Cc1ccnc(Nc2nc(-c3cc(Cl)ccn3)cs2)c1 [Example 223, 4-(4-chloropyridin-2-yl)-N-(4-methylpyridin-2-yl)thiazol-2-amine]	> 6.70
CCOc1ccnc(-c2csc(Nc3cc(C)ccn3)n2)c1 [Example 224, 4-(4-ethoxypyridin-2-yl)-N-(4-methylpyridin-2-yl)thiazol-2-amine]	6.30 to 6.70
COc1ccc(-c2csc(Nc3cc(C)ccn3)n2)nc1 [Example 225, 4-(5-methoxypyridin-2-yl)-N-(4-methylpyridin-2-yl)thiazol-2-amine]	> 6.70
Cc1sc(Nc2ccccn2)nc1-c1ccccn1 [Example 227, 5-methyl-N,4-di(pyridin-2-yl)thiazol-2-amine]	> 6.70
COc1ccc(-c2cnc(Nc3cc(OC(C)C)ccn3)o2)nc1 [Example 228, N-(4-isopropoxy-pyridin-2-yl)-5-(5-methoxypyridin-2-yl)oxazol-2-amine]	5.30 to 6.30
c1ccc(-c2ccnc(Nc3ncc(-c4ccccn4)o3)c2)cc1 [Example 229, N-(4-phenylpyridin-2-yl)-5-(pyridin-2-yl)oxazol-2-amine]	5.30 to 6.30
Cc1ccnc(Nc2ncc(-c3ncccc3C)o2)c1 [Example 230, 5-(3-methylpyridin-2-yl)-N-(4-methylpyridin-2-yl)oxazol-2-amine]	5.30 to 6.30
